In ChEMBL document CHEMBL1201862, “PubChem BioAssay data set” (2004):
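Five compound concentrations were applied to cells in 96-well plates for 48 hours; endpoints were derived by simple linear interpolation of the resulting dose-response curve. GI50: concentration for 50% inhibition of growth.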 Activity calls are given as the source filed them. Rule as the data show it: active = GI50 up to about 1.1 µM and inactive = higher.

What was measured:
Assay in all cases: NCI anticancer screen, dose series, 48 h
CCRF-CEM = tested on: CCRF-CEM
EKVX = tested on: EKVX
HCT-116 = tested on: HCT-116
HL-60 = tested on: HL-60
HOP-62 = tested on: HOP-62
K562 = tested on: K562
Malme-3M = tested on: Malme-3M
NCI-H23 = tested on: NCI-H23
OVCAR-4 = tested on: OVCAR-4
RPMI-8226 = tested on: RPMI-8226
RXF 393 = tested on: RXF 393
SK-OV-3 = tested on: SK-OV-3
SN12C = tested on: SN12C
SNB-19 = tested on: SNB-19
SW-620 = tested on: SW-620
NCI-H226 = tested on: NCI-H226
OVCAR-5 = tested on: OVCAR-5

Measured: GI50

COc1ccc(C2C(C(=O)O)=C(CO)Oc3cc4c(cc32)OCO4)c(OC)c1 (stereo not given)
inactive: CCRF-CEM 31 µM | EKVX > 100 µM | HCT-116 78.2 µM | HL-60 > 100 µM | HOP-62 18.8 µM | K562 87.5 µM | Malme-3M > 100 µM | NCI-H23 > 100 µM | OVCAR-4 78 µM | RPMI-8226 > 100 µM | RXF 393 > 100 µM | SK-OV-3 > 100 µM | SN12C 43.1 µM | SNB-19 70.5 µM | SW-620 > 100 µM

CCOC(=O)Cn1c(=O)[nH]c(=O)c2c1ncn2Cc1ccccc1
inactive: CCRF-CEM > 100 µM | EKVX > 100 µM | HCT-116 > 100 µM | HL-60 > 100 µM | HOP-62 > 100 µM | K562 > 100 µM | Malme-3M > 100 µM | NCI-H226 > 100 µM | NCI-H23 > 100 µM | OVCAR-4 > 100 µM | OVCAR-5 > 100 µM | RPMI-8226 > 100 µM | RXF 393 > 100 µM | SK-OV-3 > 100 µM | SN12C > 100 µM | SNB-19 > 100 µM | SW-620 > 100 µM

O=[N+]([O-])c1ccc(C2=Nn3cnnc3SC2)o1
inactive: CCRF-CEM 23 µM | HCT-116 14 µM | HL-60 14.8 µM | HOP-62 38.2 µM | K562 21.5 µM | Malme-3M > 10 µM | NCI-H226 26.4 µM | NCI-H23 > 10 µM | OVCAR-4 > 10 µM | OVCAR-5 22.2 µM | RPMI-8226 14.6 µM | RXF 393 18.4 µM | SK-OV-3 > 10 µM | SN12C 16.5 µM | SNB-19 29 µM | SW-620 12.2 µM

O/N=C1/C(=C/c2ccc(OCc3ccccc3)cc2)CCCC1C(NO)c1ccc(OCc2ccccc2)cc1 (stereo not given)
inactive: CCRF-CEM 11.1 µM | EKVX 5.43 µM | HCT-116 8.97 µM | HL-60 5.57 µM | HOP-62 38.9 µM | K562 9.53 µM | Malme-3M 46.5 µM | NCI-H226 > 100 µM | NCI-H23 12.7 µM | OVCAR-4 6.41 µM | OVCAR-5 > 100 µM | RXF 393 3.42 µM | SK-OV-3 > 100 µM | SN12C 3.31 µM | SNB-19 80.9 µM | SW-620 17.4 µM

O=C(Nc1ccc([N+](=O)[O-])cc1[N+](=O)[O-])C(=O)C(C(=O)c1ccc(Cl)c(Cl)c1)C1OC(=O)c2ccccc21 (stereo not given)
inactive: CCRF-CEM 22.6 µM | EKVX 22.1 µM | HCT-116 19.4 µM | HL-60 28.9 µM | HOP-62 16.7 µM | K562 28.4 µM | Malme-3M 26.3 µM | NCI-H226 12.4 µM | NCI-H23 17.3 µM | OVCAR-4 42.9 µM | OVCAR-5 25.8 µM | RPMI-8226 25 µM | RXF 393 11.8 µM | SK-OV-3 23.2 µM | SN12C 24.1 µM | SNB-19 18.6 µM | SW-620 20.6 µM

C/C=N\N1C(=O)c2ccccc2C1=O
inactive: CCRF-CEM > 100 µM | EKVX > 100 µM | HCT-116 > 100 µM | HL-60 > 100 µM | HOP-62 > 100 µM | K562 > 100 µM | Malme-3M > 100 µM | NCI-H226 > 100 µM | NCI-H23 > 100 µM | OVCAR-4 > 100 µM | OVCAR-5 > 100 µM | RPMI-8226 > 100 µM | RXF 393 > 100 µM | SN12C > 100 µM | SNB-19 > 100 µM | SW-620 > 100 µM

CC1OC(n2cc(F)c(=O)[nH]c2=O)C=CC1O (stereo not given)
inactive: CCRF-CEM > 51.3 µM | EKVX > 100 µM | HCT-116 > 100 µM | HL-60 37.2 µM | HOP-62 > 100 µM | K562 > 57.8 µM | Malme-3M > 100 µM | NCI-H226 > 100 µM | NCI-H23 > 100 µM | OVCAR-4 > 100 µM | OVCAR-5 > 100 µM | RPMI-8226 > 92.3 µM | RXF 393 > 100 µM | SK-OV-3 > 100 µM | SN12C > 100 µM | SNB-19 > 100 µM | SW-620 > 46 µM

C[N+]1(C)C[C@@H](O)C[C@@H]1C(=O)[O-] [BETONICINE]
inactive: CCRF-CEM > 100 µM | EKVX > 100 µM | HCT-116 > 100 µM | HL-60 > 100 µM | HOP-62 > 100 µM | K562 > 100 µM | Malme-3M > 100 µM | NCI-H226 > 100 µM | NCI-H23 > 100 µM | OVCAR-4 > 100 µM | RPMI-8226 > 100 µM | RXF 393 > 100 µM | SK-OV-3 > 100 µM | SN12C > 100 µM | SNB-19 > 100 µM | SW-620 > 100 µM
